Results from ChEMBL document CHEMBL1149511, “Tri-substituted triazoles as potent non-nucleoside inhibitors of the HIV-1 reverse transcriptase” (Bioorg Med Chem Lett, 2006).

Assays:
Format in all cases: functional, cell-based
HeLa [1] = experiment: Antiviral activity against HIV1 K103N-Y181C mutant in HeLa-JC53 cells
HeLa [2] = experiment: Antiviral activity against wild type HIV1 in HeLa-JC53 cells; details: Homo sapiens
HeLa [3] = experiment: Antiviral activity against HIV1 Y188L mutant in HeLa-JC53 cells

Structure (SMILES): Cc1ccc(-n2c(C)nnc2SCC(=O)Nc2ccc(C(C)C)cc2Br)cc1
- EC50 (HeLa [1]): > 10000 nM
- EC50 (HeLa [2]): 140 nM

Structure (SMILES): Cc1ccc(NC(=O)CSc2nnc(C)n2-c2ccc(F)cc2)c(Cl)c1
- EC50 (HeLa [1]): > 10000 nM
- EC50 (HeLa [2]): 2300 nM

Structure (SMILES): Cc1ccc2ccc(C)c(-n3c(SCC(=O)Nc4ccc(S(N)(=O)=O)cc4Cl)nnc3C(F)(F)F)c2c1
- EC50 (HeLa [2]): 3 nM
- EC50 (HeLa [3]): 26 nM

Structure (SMILES): Cc1ccc(-n2c(C)nnc2SCC(=O)Nc2ccccc2Br)cc1
- EC50 (HeLa [1]): 76 nM
- EC50 (HeLa [2]): 0.4 nM

Structure (SMILES): CCc1nnc(SCC(=O)Nc2ccc(C)cc2Br)n1-c1ccc(C)cc1
- EC50 (HeLa [1]): 2500 nM
- EC50 (HeLa [2]): 0.1 nM

Structure (SMILES): Cc1nnc(SCC(=O)Nc2ccc(S(N)(=O)=O)cc2Cl)n1-c1ccc(N(C)C)c2ccccc12
- EC50 (HeLa [2]): 0.5 nM
- EC50 (HeLa [3]): 88 nM

Structure (SMILES): CSc1ccccc1NC(=O)CSc1nnc(C)n1-c1ccc(C)cc1
- EC50 (HeLa [1]): 120 nM
- EC50 (HeLa [2]): 0.6 nM

Structure (SMILES): Cc1ccc(-n2c(C)nnc2SCC(=O)Nc2ccccc2I)cc1
- EC50 (HeLa [1]): 220 nM
- EC50 (HeLa [2]): 0.5 nM

Structure (SMILES): COCc1nnc(SCC(=O)Nc2ccc(C)cc2Br)n1-c1ccc(C)cc1
- EC50 (HeLa [1]): > 10000 nM

Structure (SMILES): Cc1ccc2cccc(-n3c(C)nnc3SCC(=O)Nc3ccc(S(N)(=O)=O)cc3Cl)c2n1
- EC50 (HeLa [2]): 1 nM
- EC50 (HeLa [3]): 390 nM

Structure (SMILES): Cc1ccc(-n2c(C)nnc2SCC(=O)Nc2ccc(C)cc2Br)cc1
- EC50 (HeLa [1]): 100 nM
- EC50 (HeLa [2]): 0.4 nM

Structure (SMILES): Cc1ccc2c(C)ccc(-n3c(C)nnc3SCC(=O)Nc3ccc(S(N)(=O)=O)cc3Cl)c2n1
- EC50 (HeLa [2]): 0.6 nM
- EC50 (HeLa [3]): 15 nM

Structure (SMILES): Cc1ccc(-n2c(SCC(=O)Nc3ccc(C)cc3Br)nnc2C(C)C)cc1
- EC50 (HeLa [1]): > 10000 nM

Structure (SMILES): Cc1ccc2c(C)ccc(-n3c(C)nnc3SCC(=O)Nc3ccccc3Br)c2c1
- EC50 (HeLa [2]): 0.3 nM
- EC50 (HeLa [3]): 12 nM

Structure (SMILES): Cc1ccc(-n2c(C)nnc2SCC(=O)Nc2ccccc2Cl)cc1
- EC50 (HeLa [1]): 150 nM
- EC50 (HeLa [2]): 0.7 nM

Structure (SMILES): Cc1ccc(-n2c(C)nnc2SCC(=O)Nc2ccc(C#N)cc2Cl)cc1
- EC50 (HeLa [1]): 900 nM
- EC50 (HeLa [2]): 3 nM

Structure (SMILES): Cc1ccc2c(C)cc(C)c(-n3c(C)nnc3SCC(=O)Nc3ccc(S(N)(=O)=O)cc3Cl)c2n1
- EC50 (HeLa [2]): 0.7 nM
- EC50 (HeLa [3]): 11 nM

Structure (SMILES): Cc1ccc2cc(Cl)cc(-n3c(C)nnc3SCC(=O)Nc3ccc(S(N)(=O)=O)cc3Cl)c2n1
- EC50 (HeLa [2]): 2 nM
- EC50 (HeLa [3]): 100 nM

Structure (SMILES): NS(=O)(=O)c1ccc(NC(=O)CSc2nnc(C(F)(F)F)n2-c2cccc3ccccc23)c(Cl)c1
- EC50 (HeLa [2]): 0.5 nM
- EC50 (HeLa [3]): 49 nM

Structure (SMILES): Cc1ccc2c(-n3c(C)nnc3SCC(=O)Nc3ccccc3Br)ccc(C)c2c1
- EC50 (HeLa [2]): 0.5 nM
- EC50 (HeLa [3]): 150 nM

Structure (SMILES): Cc1cc2cccc(C)c2c(-n2c(C)nnc2SCC(=O)Nc2ccccc2Br)c1C
- EC50 (HeLa [2]): 3 nM
- EC50 (HeLa [3]): 200 nM

Structure (SMILES): Cc1ccc(-n2c(C)nnc2SCC(=O)Nc2ccccc2-c2ccccc2)cc1
- EC50 (HeLa [1]): > 10000 nM
- EC50 (HeLa [2]): > 10000 nM

Structure (SMILES): Cc1nnc(SCC(=O)Nc2ccc(S(N)(=O)=O)cc2Cl)n1-c1ccc(Cl)c2ccccc12
- EC50 (HeLa [2]): 1 nM
- EC50 (HeLa [3]): 68 nM

Structure (SMILES): COc1ccc(-n2c(SCC(=O)Nc3ccc(S(N)(=O)=O)cc3Cl)nnc2C(F)(F)F)c2ccccc12
- EC50 (HeLa [2]): 0.4 nM
- EC50 (HeLa [3]): 14 nM

Structure (SMILES): Cc1ccc2cccc(C)c2c1-n1c(C)nnc1SCC(=O)Nc1ccccc1Br
- EC50 (HeLa [2]): 1 nM
- EC50 (HeLa [3]): 480 nM

Structure (SMILES): Cc1ccc(-n2c(SCC(=O)Nc3ccc(S(N)(=O)=O)cc3Cl)nnc2C(F)(F)F)c2ccccc12
- EC50 (HeLa [2]): 0.4 nM
- EC50 (HeLa [3]): 25 nM

Structure (SMILES): Cc1nnc(SCC(=O)Nc2ccc(S(N)(=O)=O)cc2Cl)n1-c1cccc2cccnc12
- EC50 (HeLa [2]): 4 nM
- EC50 (HeLa [3]): 2400 nM

Structure (SMILES): Cc1ccc(-n2cnnc2SCC(=O)Nc2ccc(C)cc2Br)cc1
- EC50 (HeLa [1]): > 10000 nM
- EC50 (HeLa [2]): 70 nM

Structure (SMILES): Cc1ccc(NC(=O)CSc2nnc(C)n2-c2cc(C)c(C)c3ccccc23)c(Cl)c1
- EC50 (HeLa [2]): 1 nM
- EC50 (HeLa [3]): 160 nM

Structure (SMILES): CNCc1nnc(SCC(=O)Nc2ccc(C)cc2Br)n1-c1ccc(C)cc1
- EC50 (HeLa [1]): > 10000 nM

Structure (SMILES): Cc1ccc(NC(=O)CSc2nnc(C)n2-c2cccc3cccnc23)c(Cl)c1
- EC50 (HeLa [2]): 8 nM
- EC50 (HeLa [3]): 5700 nM

Structure (SMILES): Cc1ccc(-n2c(C)nnc2SCC(=O)Nc2ccc(Oc3ccccc3)cc2)cc1
- EC50 (HeLa [1]): > 10000 nM
- EC50 (HeLa [2]): 1100 nM

Structure (SMILES): Cc1nnc(SCC(=O)Nc2ccc(S(N)(=O)=O)cc2Cl)n1-c1cccc2ccccc12
- EC50 (HeLa [2]): 0.5 nM
- EC50 (HeLa [3]): 190 nM

Structure (SMILES): Cc1ccc(-n2c(C)nnc2SCC(=O)Nc2ccccc2C(F)(F)F)cc1
- EC50 (HeLa [1]): > 10000 nM
- EC50 (HeLa [2]): 7 nM

Structure (SMILES): Cc1ccc(-n2c(C)nnc2SCC(=O)Nc2ccc(C)cc2Cl)c(C)c1
- EC50 (HeLa [1]): 60 nM
- EC50 (HeLa [2]): 0.1 nM

Structure (SMILES): Cc1ccc(NC(=O)CSc2nnc(C)n2-c2c(C)cc(C)c3ccccc23)c(Cl)c1
- EC50 (HeLa [2]): 1 nM
- EC50 (HeLa [3]): 90 nM

Structure (SMILES): Cc1ccc(-n2c(C)nnc2SCC(=O)Nc2cccc(Cl)c2)cc1
- EC50 (HeLa [1]): > 10000 nM
- EC50 (HeLa [2]): > 10000 nM

Structure (SMILES): CSCc1nnc(SCC(=O)Nc2ccc(C)cc2Br)n1-c1ccc(C)cc1
- EC50 (HeLa [1]): > 10000 nM

Structure (SMILES): Cc1ccc2cccc(-n3c(SCC(=O)Nc4ccc(S(N)(=O)=O)cc4Cl)nnc3C(F)(F)F)c2n1
- EC50 (HeLa [2]): 0.6 nM
- EC50 (HeLa [3]): 22 nM

Structure (SMILES): Cc1nnc(SCC(=O)Nc2ccccc2Br)n1-c1ccc(N(C)C)c2ccccc12
- EC50 (HeLa [2]): 0.4 nM
- EC50 (HeLa [3]): 240 nM

Structure (SMILES): COc1ccc(-n2c(C)nnc2SCC(=O)Nc2ccc(C)cc2Cl)c2ccccc12
- EC50 (HeLa [2]): 1 nM
- EC50 (HeLa [3]): 240 nM

Structure (SMILES): NS(=O)(=O)c1ccc(NC(=O)CSc2nnc(C(F)(F)F)n2-c2ccc(Cl)c3ccccc23)c(Cl)c1
- EC50 (HeLa [2]): 4 nM
- EC50 (HeLa [3]): 41 nM

Structure (SMILES): Cc1ccc(-n2c(C)nnc2SCC(=O)Nc2cc(Cl)ccc2Cl)cc1
- EC50 (HeLa [2]): 100 nM

Structure (SMILES): Cc1nnc(SCC(=O)Nc2ccccc2Br)n1-c1cccc2ccccc12
- EC50 (HeLa [2]): 2 nM
- EC50 (HeLa [3]): 720 nM

Structure (SMILES): Cc1ccc(-n2c(C)nnc2SCC(=O)Nc2ccc(S(N)(=O)=O)cc2Cl)c2ccccc12
- EC50 (HeLa [2]): 0.2 nM
- EC50 (HeLa [3]): 20 nM

Structure (SMILES): Cc1ccc(NC(=O)CSc2nnc(C)n2-c2cccc(Cl)c2)c(Cl)c1
- EC50 (HeLa [2]): 260 nM

Structure (SMILES): Cc1nnc(SCC(=O)Nc2ccc(S(N)(=O)=O)cc2Cl)n1-c1cc(Br)cc2cccnc12
- EC50 (HeLa [2]): 0.8 nM
- EC50 (HeLa [3]): 190 nM

Structure (SMILES): Cc1ccc(-n2c(C)nnc2SCC(=O)Nc2ccc(Cl)cc2Cl)cc1
- EC50 (HeLa [2]): 5 nM

Structure (SMILES): Cc1ccc(-n2c(CO)nnc2SCC(=O)Nc2ccc(C)cc2Br)cc1
- EC50 (HeLa [1]): > 10000 nM

Structure (SMILES): Cc1ccc(NC(=O)CSc2nnc(C)n2-c2cccc(C(F)(F)F)c2)c(Cl)c1
- EC50 (HeLa [2]): > 600 nM

Structure (SMILES): Cc1cc2c(C)cccc2c(-n2c(C)nnc2SCC(=O)Nc2ccccc2Br)c1C
- EC50 (HeLa [2]): 0.8 nM
- EC50 (HeLa [3]): 160 nM

Structure (SMILES): Cc1ccc2c(C)cccc2c1-n1c(C)nnc1SCC(=O)Nc1ccccc1Br
- EC50 (HeLa [2]): 0.3 nM
- EC50 (HeLa [3]): 330 nM

Structure (SMILES): COc1cc(-n2c(C)nnc2SCC(=O)Nc2ccc(S(N)(=O)=O)cc2Cl)c2ncccc2c1
- EC50 (HeLa [2]): 0.8 nM
- EC50 (HeLa [3]): 370 nM

Structure (SMILES): Cc1cc2c(C)ccc(-n3c(C)nnc3SCC(=O)Nc3ccccc3Br)c2cc1C
- EC50 (HeLa [2]): 1 nM
- EC50 (HeLa [3]): 110 nM

Structure (SMILES): Cc1cccc(-n2c(C)nnc2SCC(=O)Nc2ccc(C)cc2Cl)c1
- EC50 (HeLa [2]): 110 nM

Structure (SMILES): Cc1nnc(SCC(=O)Nc2ccccc2Br)n1-c1cccc2cccnc12
- EC50 (HeLa [2]): 7 nM
- EC50 (HeLa [3]): 4200 nM

Structure (SMILES): Cc1ccc2c(C)ccc(-n3c(SCC(=O)Nc4ccc(S(N)(=O)=O)cc4Cl)nnc3C(F)(F)F)c2c1
- EC50 (HeLa [2]): 6 nM
- EC50 (HeLa [3]): 35 nM

Structure (SMILES): NS(=O)(=O)c1ccc(NC(=O)CSc2nnc(C(F)(F)F)n2-c2cccc3cccnc23)c(Cl)c1
- EC50 (HeLa [2]): 2 nM
- EC50 (HeLa [3]): 180 nM

Structure (SMILES): Cc1ccc(-n2c(SCC(=O)Nc3ccc(C)cc3Br)nnc2C2CC2)cc1
- EC50 (HeLa [1]): > 10000 nM

Structure (SMILES): COc1ccc(-n2c(C)nnc2SCC(=O)Nc2ccc(S(N)(=O)=O)cc2Cl)c2ccccc12
- EC50 (HeLa [2]): 0.7 nM
- EC50 (HeLa [3]): 110 nM

Structure (SMILES): Cc1ccc(-n2c(O)nnc2SCC(=O)Nc2ccc(C)cc2Br)cc1
- EC50 (HeLa [1]): > 10000 nM
